# Data from patent US20060083748A1, “Calixarenes for use as excipient for an active substance” (priority 2002, published 2006).
# Where two headings read alike, the source gives them in different places.
# Key:
# [1] = Membrane permeation, PAMPORE system (hydrophilic pores in the lipid layer); details: hydrophilic pores in the lipid layer (paracellular path); 125 or 250 μM, Tris-buffer pH 7.4, 16 hours
# Source text: (§1) The combination of these two test systems allows the study of the permeability of a plurality of active ingredients independently of the type of transport which they prefer.
# [2] = Membrane permeation, traditional artificial membrane without hydrophilic pores (Standard); details: artificial membrane without hydrophilic pores (transcellular path); 125 or 250 μM, Tris-buffer pH 7.4, 16 hours
# Source text: as §1
# [3] = tested on: herpes simplex; details: cited from earlier work
# [4] = cited from earlier work
# [5] = tested on: Herpes simplex 1, herpes simplex 2, varicella zoster; details: cited from earlier work
# [6] = tested on: CMV; details: in achievable concentrations; cited from earlier work
# [7] = AIDS, chemotherapy; i.v. administration; cited from earlier work
# [8] = tested on: Varizella zoster; details: cited from earlier work
# [9] = tested on: Epstein-Barr; details: cited from earlier work
molecule,measurement,setting,value
"5,11,17,23-tetrasulphonic acid calix[4]arenes",Membrane permeation (%) PAMPORE,[1],100%
same,Membrane permeation (%) Standard,[2],<15%
Nc1nc2c(ncn2COCCO)c(=O)[nH]1 [aciclovir],Effect in recurring mucocutaneous herpes infections,[3]; chron. suppressive therapy,reduces rate of attack
same,Effect in mucocutaneous herpes simplex infections,[3]; mucocutaneous herpes simplex infections,overall moderate benefit
same,t/2,[4]; anuria (renal insufficiency),18 h
same,t/2,[4]; normal renal function,3 h
same,Activity (order of activity against viruses),[5],Herpes simplex 1>herpes simplex 2>varicella zoster
same,Activity against CMV,[6],not active
same,Effect in immune suppressed patients,[7],"prevents dissemination, faster healing"
same,Effect on post-herpetic neuralgia,[8]; in vivo,no clear effect
same,Effect on healing in varizella zoster infections,"[8]; symptoms, lesions, pain",faster healing
same,Activity against Epstein-Barr,[9],only in vitro
Hexasulphonic acid calix[6]arenes,Membrane permeation (%) PAMPORE,[1],100%
same,Membrane permeation (%) Standard,[2],0%
Tetramethyltetramethyl resorcin[4]arenes,Membrane permeation (%) PAMPORE,[1],95%
same,Membrane permeation (%) Standard,[2],<15%
